Counter-ions that a name gives are not always drawn.
Test: physchem
Details: for solubility in water: result in words
Excerpt: In the absence of ethanol an alternative preservative could be used, though methyl parabens and potassium sorbate precipitated out of solution.
Suitable sweeteners were sucralose (0.05%) and suitable flavourings were strawberry flavour 501094 (0.5%) and orange juice flavour 506304 (0.5%).
Cremophor EL (macrogol glycerol ricinoleate Ph Eur) was identified as a component that was able to maintain menthol, peppermint oil, aniseed and lemon oil in solution. These flavours were firstly mixed at 10% w/w with Cremophor EL, and the resultant combination then mixed with water (10% w/w in purified water). […] Note that vanillin also degraded in Cremophor EL, rendering it unusable. […] The action of Cremophor EL here is that of a water-miscible oil-based solvent. Sildenafil and vardenafil remained in solution at a concentration of at least 60 mg/ml and 30 mg/ml, respectively, in the presence of 10% Cremophor EL.

[1] = Miglyol 810 (medium-chain triglycerides Ph Eur), with or without ethanol

| SMILES | solubility in Miglyol 810 | solubility (water) [mg/mL] | solubility in Miglyol 810 [1] | solubility in other potential solvents e.g. PEG (PEG, even using ethanol as a co-solvent) | solubility in water (water) |
| --- | --- | --- | --- | --- | --- |
| CCCc1nc(C)c2c(=O)[nH]c(-c3cc(S(=O)(=O)N4CCN(CC)CC4)ccc3OCC)nn12 [Vardenafil (hydrochloride trihydrate), vardenafil hydrochloride trihydrate] | insoluble | ≥ 50 |  |  |  |
| CN1CC(=O)N2[C@H](c3ccc4c(c3)OCO4)c3[nH]c4ccccc4c3C[C@@H]2C1=O [Tadalafil (base), Tadalafil] |  |  | insoluble | insoluble | insoluble |
| CCCc1nn(C)c2c(=O)[nH]c(-c3cc(S(=O)(=O)N4CCN(C)CC4)ccc3OCC)nc12 [sildenafil (base), sildenafil] |  |  | Neither sildenafil (base) nor sildenafil citrate were found to be soluble |  | Neither sildenafil (base) nor sildenafil citrate were found to be soluble |

Reference: patent publication US20150005307A1, “Drug Delivery Technology” (LondonPharma Ltd., priority 2011, published 2015)
